This note sets out measurements from patent US11919887B2, “Substituted tetrahydrofurans as modulators of sodium channels” (Vertex Pharmaceuticals Incorporated, priority 2019, dated 2024).

Broadly, the IC50 is the concentration needed to halve the response being measured.

human Nav 1.8, sequence (Q9Y5Y9 whole entry, looked up, the tested form may be a part): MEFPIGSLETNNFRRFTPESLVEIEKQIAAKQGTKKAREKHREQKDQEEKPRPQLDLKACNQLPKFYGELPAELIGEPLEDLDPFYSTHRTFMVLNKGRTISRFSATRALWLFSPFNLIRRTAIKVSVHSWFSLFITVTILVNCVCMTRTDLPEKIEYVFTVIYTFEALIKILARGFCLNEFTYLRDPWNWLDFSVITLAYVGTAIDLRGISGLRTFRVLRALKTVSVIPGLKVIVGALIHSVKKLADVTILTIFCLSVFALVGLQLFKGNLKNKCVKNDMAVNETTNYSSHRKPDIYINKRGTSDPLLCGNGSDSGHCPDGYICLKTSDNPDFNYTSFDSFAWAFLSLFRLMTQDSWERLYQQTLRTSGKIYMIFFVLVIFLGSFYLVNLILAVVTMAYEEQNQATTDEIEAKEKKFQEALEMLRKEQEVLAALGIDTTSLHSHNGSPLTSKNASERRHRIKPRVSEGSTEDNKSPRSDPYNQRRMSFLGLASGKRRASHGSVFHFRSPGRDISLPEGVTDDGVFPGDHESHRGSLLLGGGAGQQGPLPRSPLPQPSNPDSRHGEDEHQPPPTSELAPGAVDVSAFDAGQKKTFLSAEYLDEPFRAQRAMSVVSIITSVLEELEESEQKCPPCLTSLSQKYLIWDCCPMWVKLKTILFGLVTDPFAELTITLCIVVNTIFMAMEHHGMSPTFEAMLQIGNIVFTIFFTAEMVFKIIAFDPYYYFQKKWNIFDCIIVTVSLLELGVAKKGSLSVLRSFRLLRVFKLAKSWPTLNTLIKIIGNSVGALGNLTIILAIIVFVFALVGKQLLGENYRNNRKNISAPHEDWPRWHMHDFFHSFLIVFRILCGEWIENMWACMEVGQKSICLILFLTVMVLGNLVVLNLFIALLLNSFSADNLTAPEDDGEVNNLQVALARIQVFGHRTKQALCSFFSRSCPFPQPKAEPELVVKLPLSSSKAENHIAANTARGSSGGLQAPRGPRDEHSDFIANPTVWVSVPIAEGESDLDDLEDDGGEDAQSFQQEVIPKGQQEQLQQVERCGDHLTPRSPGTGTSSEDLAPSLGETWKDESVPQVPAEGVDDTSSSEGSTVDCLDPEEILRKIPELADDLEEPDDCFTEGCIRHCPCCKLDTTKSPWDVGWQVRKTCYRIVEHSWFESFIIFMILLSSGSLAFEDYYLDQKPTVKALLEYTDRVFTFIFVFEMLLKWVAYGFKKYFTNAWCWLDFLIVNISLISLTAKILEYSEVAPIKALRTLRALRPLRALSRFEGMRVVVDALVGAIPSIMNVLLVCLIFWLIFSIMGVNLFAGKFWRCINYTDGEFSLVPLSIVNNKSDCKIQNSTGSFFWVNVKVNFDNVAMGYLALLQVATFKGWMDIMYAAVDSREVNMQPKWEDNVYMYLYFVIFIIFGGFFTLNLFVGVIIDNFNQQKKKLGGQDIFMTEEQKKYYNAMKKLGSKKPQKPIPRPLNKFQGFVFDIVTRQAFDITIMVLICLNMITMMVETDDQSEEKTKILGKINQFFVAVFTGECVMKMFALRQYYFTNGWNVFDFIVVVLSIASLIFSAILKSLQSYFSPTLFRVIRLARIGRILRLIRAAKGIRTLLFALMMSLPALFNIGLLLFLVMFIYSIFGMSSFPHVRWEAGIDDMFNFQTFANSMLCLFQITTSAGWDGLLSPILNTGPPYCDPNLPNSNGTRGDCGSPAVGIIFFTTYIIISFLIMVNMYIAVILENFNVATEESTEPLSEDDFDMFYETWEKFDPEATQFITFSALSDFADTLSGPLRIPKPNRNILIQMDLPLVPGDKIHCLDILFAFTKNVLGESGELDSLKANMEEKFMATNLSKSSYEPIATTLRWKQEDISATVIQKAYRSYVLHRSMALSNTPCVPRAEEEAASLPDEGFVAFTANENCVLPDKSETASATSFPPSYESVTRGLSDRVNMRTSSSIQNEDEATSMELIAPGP

One assay concerns the target human Nav 1.8 (Homo sapiens, UniProt Q9Y5Y9). Nature of the assay: E-VIPR assay detecting and measuring Nav inhibition (HEK cells expressing truncated human Nav 1.8). Format: cell-based. The conditions noted are these: in the Absence of Human Serum in the E-VIPR Assay; read-out: IC50. The procedure, abridged: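 HEK cells expressing truncated human Nav1.8, transduced with KIR2.1 BacMam, were loaded with CC2-DMPE/DiSBAC6(3) FRET dyes and tested under electrical stimulation (E-VIPR). Compounds were run as 11-point 3-fold dilutions, top 300 nM final, 0.625% DMSO, with or without 25% human serum.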
As to `COc1c([C@H]2[C@H](C(=O)Nc3ccnc(C(N)=O)c3F)O[C@@](C)(C(F)(F)F)[C@H]2C)ccc(F)c1F` [Compound 126, 4-[[(2R,3S,4S,5R)-3-(3,4-difluoro-2-methoxy-phenyl)-4,5-dimethyl-5-(trifluoromethyl)tetrahydrofuran-2-carbonyl]amino]-3-fluoro-pyridine-2-carboxamide], the IC50 was less than 10 nM.
Still for that read-out and setting: for `Cc1c([C@H]2[C@H](C(=O)Nc3ccnc(C(N)=O)c3)O[C@@](C)(C(F)(F)F)[C@H]2C)ccc(F)c1F` (stereo in doubt) [Compound 132, rel-(2R,3S,4S,5R)-4-[[3-(3,4-difluoro-2-methyl-phenyl)-4,5-dimethyl-5-(trifluoromethyl)tetrahydrofuran-2-carbonyl]amino]pyridine-2-carboxamide] the value was less than 10 nM.
Same read-out and setting: as for `COc1c([C@@H]2[C@@H](C(=O)Nc3ccnc(C(N)=O)c3)O[C@](C)(C(F)(F)F)[C@@H]2C)cccc1C(F)(F)F` (single isomer, unassigned) [compound 43], the figure is 100 to 1000 nM.
Still for that read-out and setting: for `C[C@H]1[C@@H](c2ccc(F)c(F)c2OC2CCC2)[C@H](C(=O)Nc2ccnc(C(N)=O)c2)O[C@@]1(C)C(F)(F)F` [Compound 147, 4-[[(2R,3S,4S,5R)-3-[2-(cyclobutoxy)-3,4-difluoro-phenyl]-4,5-dimethyl-5-(trifluoromethyl)tetrahydrofuran-2-carbonyl]amino]pyridine-2-carboxamide] the value was less than 10 nM.

The same assay, now with this note: in the Presence of Human Serum in the E-VIPR Assay; read-out: IC50.
In the case of `CCOc1c([C@@H]2[C@@H](C(=O)Nc3ccnc(C(N)=O)c3)O[C@](C)(C(F)(F)F)[C@@H]2C)ccc(F)c1F` [Compound 8, (2S,3R,4R,5S)-4-[[3-(2-ethoxy-3,4-difluoro-phenyl)-4,5-dimethyl-5-(trifluoromethyl)tetrahydrofuran-2-carbonyl]amino]pyridine-2-carboxamide], the IC50 is greater than 1000 nM.
Still for that read-out and setting: as for `C[C@H]1[C@@H](c2ccc(F)c(F)c2OC(F)F)[C@H](C(=O)Nc2ccnc(C(N)=O)c2)O[C@@]1(C)C(F)(F)F` (racemic) [Compound 115, rac-(2R,3S,4S,5R)-4-[[3-[2-(difluoromethoxy)-3,4-difluoro-phenyl]-4,5-dimethyl-5-(trifluoromethyl)tetrahydrofuran-2-carbonyl]amino]pyridine-2-carboxamide], the figure is less than 10 nM.
Same read-out and setting: for `COc1c([C@@H]2[C@H](C)[C@H](C(C)C)O[C@H]2C(=O)Nc2ccnc(C(N)=O)c2)ccc(F)c1F` [Compound 113, 4-[[(2R,3S,4S,5S)-3-(3,4-difluoro-2-methoxy-phenyl)-5-isopropyl-4-methyl-tetrahydrofuran-2-carbonyl]amino]pyridine-2-carboxamide] the value was 10 to 100 nM.
Same read-out and setting: as for `CC[C@]1(C(F)(F)F)C[C@@H](c2ccc(F)c(F)c2OC)[C@H](C(=O)Nc2ccnc(C(N)=O)c2)O1` (stereo in doubt) [Compound 64, rel-(2R,3S,5R)-4-[[3-(3,4-difluoro-2-methoxy-phenyl)-5-ethyl-5-(trifluoromethyl)tetrahydrofuran-2-carbonyl]amino]pyridine-2-carboxamide], the figure is 10 to 100 nM.
For `COc1c([C@H]2C[C@](C)(C(F)(F)F)O[C@@H]2C(=O)Nc2ccnc(C(N)=O)c2)ccc(F)c1Cl` [Compound 21, (2S,3R,5R)-4-[[3-(3-chloro-4-fluoro-2-methoxy-phenyl)-5-methyl-5-(trifluoromethyl)tetrahydrofuran-2-carbonyl]amino]pyridine-2-carboxamide], the IC50 was greater than 1000 nM.
Take `Cc1cnc(C(N)=O)cc1NC(=O)[C@H]1O[C@](C)(C(F)(F)F)[C@H](C)[C@@H]1c1ccc(F)c(F)c1OC(F)F` (stereo in doubt) [Compound 151, rel-(2S,3R,4R,5S)-4-[[3-[2-(difluoromethoxy)-3,4-difluoro-phenyl]-4,5-dimethyl-5-(trifluoromethyl)tetrahydrofuran-2-carbonyl]amino]-5-methyl-pyridine-2-carboxamide]: the IC50 is 10 to 100 nM.
The same measure, in the same setting: as for `COc1c([C@H]2[C@H](C(=O)Nc3ccnc(C(N)=O)c3)OC(C)(C)[C@H]2C)ccc(F)c1F` (single isomer, unassigned) [Compound 105], the figure is 10 to 100 nM; as for `COc1c([C@@H]2[C@@H](C(=O)Nc3ccnc(C(N)=O)c3)O[C@](C)(C(F)(F)F)[C@@H]2C)ccc(F)c1C(F)F` (single isomer, unassigned) [Compound 45], 10 to 100 nM.
The same measure, in the same setting: as for `COc1c([C@@H]2C[C@](C)(C(C)(F)F)O[C@H]2C(=O)Nc2ccnc(C(N)=O)c2)ccc(F)c1F` (single isomer, unassigned) [Compound 86], the figure is greater than 1000 nM; as for `COc1c([C@H]2C[C@@](C)(C(F)(F)F)O[C@@H]2C(=O)Nc2ccnc(C(N)=O)c2)ccc(F)c1Cl` (relative stereo) [Compound 22, rel-(2R,3S,5R)-4-[[3-(3-chloro-4-fluoro-2-methoxy-phenyl)-5-methyl-5-(trifluoromethyl)tetrahydrofuran-2-carbonyl]amino]pyridine-2-carboxamide], 10 to 100 nM.
